The values below come from patent US9833423B2 (KOREA RESEARCH INSTITUTE OF CHEMICAL TECHNOLOGY, priority 2011, dated 2017).

For one series, the system named is Coxsackie-virus B1. Put plainly: Cytopathic effect (CPE) inhibition assay. The series is classed as cell-based, Coxsackievirus B1. Particulars: Enterovirus B, HeLa37, 48 h, HeLa, 37° C., 2 days.
A further series is described as follows: in vitro. The following applies: human.
Setting [1] is: Table 3, read-out: EC50 Coxsackie-virus B1.
Setting [2] is: Table 4, read-out: Coxsackie-virus B1 EC50.

Values after ≈ are worked out from the molar mass of the structure shown. Read-outs that look alike come from different tables or passages of the source.

Regarding `CC(=O)Oc1cc(C(C)(C)C)ccc1C1(OC(C)=O)C(=O)c2ccccc2C1=O` [Example 15, 2-(2-Acetoxy-1,3-dioxo-2,3-dihydro-1H-inden-2-yl)-5-tert-butylphenyl acetate], the melting point is 119 to 120 °C. Moreover, the concentration giving a half-maximal response (EC50) in the series on Coxsackie-virus B1 (setting [1]) worked out at 0.015 µg/mL. In addition, in the series “in vitro” (CC50), the CC50 is 8.26 µg/mL.
On the same counts, the results for `CCC(=O)Oc1cc(C(C)C)ccc1C1(OC(=O)CC)C(=O)c2ccccc2C1=O` [Example 21, 2-(1,3-Dioxo-2-(propionyloxy)-2,3-dihydro-1H-inden-2-yl)-5-isopropylphenyl propionate] are 123 to 125 °C, less than 0.01 µg/mL and 16 µg/mL (≈ 39.2 µM).
On to `CCC(=O)Nc1cc(C)c(C)cc1C1(O)C(=O)c2ccccc2C1=O` [Example 87, N-(2-(2-Hydroxy-1,3-dioxo-2,3-dihydro-1H-inden-2-yl)-4,5-dimethylphenyl)propionamide], for which, in the series on Coxsackie-virus B1 (setting [2]), the EC50 came out at 0.019 µg/mL (≈ 0.0563 µM). The compound also displayed a CC50 in the series “in vitro” (Picorna-virus CC50) of 8.31 µg/mL (≈ 24.6 µM).
`CCCCCCCC(=O)NC1(c2ccc(C(C)C)cc2OC(=O)CCCCCCC)C(=O)c2cccc(N)c2C1=O` (stereo not drawn) [Example 91, 2-(4-Amino-2-octanamido-1,3-dioxo-2,3-dihydro-1H-inden-2-yl)-5-isopropylphenyl octanoate]: the EC50 in the series with Coxsackie-virus B1 (setting [2]) is 0.015 µg/mL (≈ 0.0267 µM). Moreover, the CC50 in the series “in vitro” (Picorna-virus CC50) was determined as 40 µg/mL (≈ 71.1 µM).
Consider `COc1cc(C(C)C)ccc1C1(NC(C)=O)C(=O)c2ccccc2C1=O` [Example 54, N-(2-(4-Isopropyl-2-methoxyphenyl)-1,3-dioxo-2,3-dihydro-1H-inden-2-yl)acetamide], for which the melting point was in the range of 222 to 224 °C. Also, in the series on Coxsackie-virus B1 (setting [1]), the concentration for a half-maximal effect (EC50) is 0.0198 µg/mL (≈ 0.0563 µM). Moreover, the CC50 in the series “in vitro” (CC50) was greater than 117 µg/mL.
On to `CC(C)C(=O)NC1(c2ccc(C(C)C)cc2OC(=O)C(C)C)C(=O)c2ccccc2C1=O` [Example 50, 2-(2-Isobutylamido-1,3-dioxo-2,3-dihydro-1H-inden-2-yl)-5-isopropylphenyl isobutyrate], for which, in the series on Coxsackie-virus B1 (setting [1]), the EC50 was 0.0112 µg/mL (≈ 0.0257 µM). In addition, the CC50 in the series “in vitro” (CC50) is 44.3 µg/mL (≈ 102 µM).
As for `C=CC(=O)Oc1cc(C(C)C)ccc1C1(OC(=O)C=C)C(=O)c2ccccc2C1=O` [Example 32, 2-(2-(Acryloyloxy)-1,3-dioxo-2,3-dihydro-1H-inden-2-yl)-5-isopropylphenyl acrylate], the EC50 in the series on Coxsackie-virus B1 (setting [1]) is less than 0.01 µg/mL. The compound further had a CC50 in the series “in vitro” (CC50) of 28.7 µg/mL (≈ 70.9 µM).
Compound `COc1cc(C(C)C)ccc1C1(O)C(=O)c2c(N)ccc(N)c2C1=O` [Example 46, 4,7-Diamino-2-hydroxy-2-(4-isopropyl-2-methoxyphenyl)-2H-inden-1,3-dione] returned a melting point of 243 to 247 °C. The CC50 in the series “in vitro” (CC50) was found to be 64 µg/mL (≈ 188 µM).
On the same counts, the results for `COc1cc(C(C)C)ccc1C1(NC(=O)C2CC2)C(=O)c2ccccc2C1=O` [Example 56, N-(2-(4-Isopropyl-2-methoxyphenyl)-1,3-dioxo-2,3-dihydro-1H-inden-2-yl) cyclopropancarboxamide] are 145 to 147 °C and 87.8 µg/mL (≈ 233 µM).
On the same counts, the results for `COc1ccc(OC(C)=O)c(C2(OC(C)=O)C(=O)c3ccccc3C2=O)c1` [Example 7, 2-(2-Acetoxy-1,3-dioxo-2,3-dihydro-1H-inden-2-yl)-4-methoxyphenyl acetate] are 184 to 186 °C and greater than 100 µg/mL.
As for `CCN(CC)C(=O)Oc1cc(C(C)C)ccc1C1(OC(=O)N(CC)CC)C(=O)c2ccccc2C1=O` [Example 33, Diethyl-carbamic acid 2-(2-diethylcarbamoyloxy-1,3-dioxo-indan-2-yl)-5-isopropyl-phenyl ester], the melting point was in the range of 103 to 105 °C. Moreover, the CC50 in the series “in vitro” (CC50) was greater than 100 µg/mL.
For `COc1cc(C(C)C)ccc1C1(O)C(=O)c2ccc([N+](=O)[O-])c(NC(C)=O)c2C1=O` (stereo not drawn) [Example 43, N-(2-Hydroxy-2-(4-isopropyl-2-methoxyphenyl)-5-nitro-1,3-dioxo-2,3-dihydro-1H-inden-4-yl)acetamide], in that order: 199 to 201 °C and 61.7 µg/mL (≈ 150 µM).
Compound `COc1cc(C(C)C)ccc1C1(O)C(=O)c2c(NC(C)=O)ccc([N+](=O)[O-])c2C1=O` (stereo not drawn) [Example 42, N-(2-Hydroxy-2-(4-isopropyl-2-methoxyphenyl)-7-nitro-1,3-dioxo-2,3-dihydro-1H-inden-4-yl)acetamide] yielded a melting point of 110 to 115 °C. For the same compound, the CC50 in “in vitro” (CC50) worked out at 71.1 µg/mL (≈ 172 µM).
On the same counts, the results for `CCNC(=O)NC1(c2ccc(C(C)C)cc2OC)C(=O)c2ccccc2C1=O` [Example 60, 1-Ethyl-3-(2,3-dihydro-2-(4-isopropyl-2-methoxyphenyl)-1,3-dioxo-1H-inden-2-yl)urea] are 267 to 269 °C and 68.9 µg/mL (≈ 181 µM).
Compound `CC(=O)Oc1c(C2(OC(C)=O)C(=O)c3ccccc3C2=O)ccc(Cl)c1Cl` [Example 4, 6-(2-Acetoxy-1,3-dioxo-2,3-dihydro-1H-inden-2-yl)-2,3-dichlorophenyl acetate] came in with a melting point of 129 to 136 °C. Further, the CC50 in the series “in vitro” (CC50) came out at 50.4 µg/mL.
Compound `CC(=O)c1ccc(C2(O)C(=O)c3ccccc3C2=O)c(O)c1` [Example 20, 2-(4-Acetyl-2-hydroxy-phenyl)-2-hydroxy-indan-1,3-dione] gave a melting point of 177 to 180 °C. The compound further came in with a CC50 in “in vitro” (CC50) greater than 100 µg/mL.
Turning to `CC(C)c1ccc(C2(O)Cc3ccccc3C2=O)c(O)c1` (stereo not drawn) [Example 51, 2-Hydroxy-2-(2-hydroxy-4-isopropylphenyl)-2,3-dihydro-1H-inden-1-one], the melting point lay within 144 to 146 °C. In “in vitro” (CC50), the CC50 came to 9.34 µg/mL (≈ 33.1 µM).
On to `CSc1ccc(C2(O)C(=O)c3ccccc3C2=O)cc1` [Example 58], for which the melting point lay within 153 to 155 °C. Further, the CC50 in “in vitro” (CC50) amounted to 47.8 µg/mL (≈ 168 µM).
The compound `COc1cc(C(C)C)ccc1C1(NC(C)=O)C(=O)c2cccc(NC(C)=O)c2C1=O` (stereo not drawn) [Example 67, N,N′-(2-(4-Isopropyl-2-methoxyphenyl)-1,3-dioxo-2,3-dihydro-1H-inden-2,4-diyl)diacetamide] yielded a melting point of 241 to 243 °C. The compound also registered a CC50 in “in vitro” (CC50) of 54.6 µg/mL (≈ 134 µM).
In the case of `COc1cc(C(C)C)ccc1C1(Br)C(=O)c2cccc(NC(C)=O)c2C1=O` (stereo not drawn) [Example 65, N-(2-Bromo-2-(4-isopropyl-2-methoxyphenyl)-1,3-dioxo-2,3-dihydro-1H-inden-4-yl)acetamide], the melting point was in the range of 143 to 145 °C. Besides, in “in vitro” (CC50), the CC50 was found to be 11.2 µg/mL (≈ 25.9 µM).
`CCCc1ccc(OC(C)=O)c(C2(OC(C)=O)C(=O)c3ccccc3C2=O)c1` [Example 11, 2-(2-Acetoxy-1,3-dioxo-2,3-dihydro-1H-inden-2-yl)-4-propylphenyl acetate] came in with a melting point of 108 to 111 °C. The compound also showed a CC50 in the series “in vitro” (CC50) of 8.42 µg/mL.
Regarding `CC(=O)Oc1cc(-c2ccccc2)ccc1C1(OC(C)=O)C(=O)c2ccccc2C1=O` [Example 8, 4-(2-Acetoxy-1,3-dioxo-2,3-dihydro-1H-inden-2-yl)biphenyl-3-yl acetate], the melting point lay within 165 to 167 °C. In addition, the CC50 in the series “in vitro” (CC50) is 7.91 µg/mL.
For `CONC(=O)NC1(c2ccc(C(C)C)cc2OC)C(=O)c2ccccc2C1=O` [Example 63, 1-(2-(4-Isopropyl-2-methoxyphenyl)-1,3-dioxo-2,3-dihydro-1H-inden-2-yl)-3-methoxy urea], in that order: 153 to 155 °C and greater than 117 µg/mL.
`COc1cc(C(C)C)ccc1C1(Cl)C(=O)c2cccc([N+](=O)[O-])c2C1=O` (stereo not drawn) [Example 39, 2-Chloro-2-(4-isopropyl-2-methoxyphenyl)-4-nitro-2H-inden-1,3-dione] registered a melting point of 81 to 84 °C. The compound also yielded a CC50 in “in vitro” (CC50) of 6.67 µg/mL (≈ 17.8 µM).
The compound `COc1cc(C(C)C)ccc1C1(N=[N+]=[N-])C(=O)c2ccccc2C1=O` [Example 52, 2-Azido-2-(4-isopropyl-2-methoxyphenyl)-2H-inden-1,3-dione] had a melting point of 175 to 177 °C. In the series “in vitro” (CC50), this compound returned a CC50 of 27.7 µg/mL (≈ 82.5 µM).
`CC(=O)Oc1ccc(C(C)(C)C)cc1C1(OC(C)=O)C(=O)c2ccccc2C1=O` [Example 14, 2-(2-Acetoxy-1,3-dioxo-2,3-dihydro-1H-inden-2-yl)-4-tert-butylphenyl acetate] displayed a melting point of 195 to 196 °C. In addition, the CC50 in the series “in vitro” (CC50) was found to be 8.26 µg/mL.
Regarding `CCc1ccc(OC(C)=O)c(C2(OC(C)=O)C(=O)c3ccccc3C2=O)c1` [Example 12, 2-(2-Acetoxy-1,3-dioxo-2,3-dihydro-1H-inden-2-yl)-4-ethylphenyl acetate], the melting point was in the range of 153 to 154 °C. Also, in “in vitro” (CC50), the CC50 was 74.1 µg/mL.
For `CSc1ccccc1C1(O)C(=O)c2ccccc2C1=O` [Example 57], the melting point is 191 to 193 °C. Moreover, the CC50 in the series “in vitro” (CC50) was 48.2 µg/mL (≈ 170 µM).
With `CC(=O)Oc1cc(C)cc(C2(OC(C)=O)C(=O)c3ccccc3C2=O)c1OC(C)=O` [Example 18, Acetic acid 2-(2,3-diacetoxy-5-methyl-phenyl)-1,3-dioxo-indan-2-yl ester], the melting point fell in the range of 192 to 194 °C. The compound also showed a CC50 in the series “in vitro” (CC50) greater than 100 µg/mL.
The compound `Cc1cc(C2(O)C(=O)c3ccccc3C2=O)c(C)cc1O` [Example 35, 2-Hydroxy-2-(4-hydroxy-2,5-dimethylphenyl)-1H-inden-1,3(2H)-dione] displayed a melting point of 228 to 230 °C. Besides, in “in vitro” (CC50), the CC50 came out at 59.8 µg/mL (≈ 212 µM).
On the same counts, the results for `CC(C)c1ccc(C2(OC(=O)C(C)(C)C)C(=O)c3ccccc3C2=O)c(OC(=O)C(C)(C)C)c1` [Example 29, 2-(1,3-Dioxo-2-(pivaloyloxy)-2,3-dihydro-1H-inden-2-yl)-5-isopropylphenyl pivalate] are 121 to 124 °C and greater than 100 µg/mL.
For `COc1cc(C(C)C)ccc1C1(NC(=O)OC(C)C)C(=O)c2ccccc2C1=O` [Example 62, Isopropyl 2-(4-isopropyl-2-methoxyphenyl)-1,3-dioxo-2,3-dihydro-1H-inden-2-ylcarbamate], in that order: 159 to 161 °C and 11.3 µg/mL (≈ 28.5 µM).
Turning to `COC(=O)NC1(c2ccc(C(C)C)cc2OC)C(=O)c2ccccc2C1=O` [Example 59, Methyl 2-(4-isopropyl-2-methoxyphenyl)-1,3-dioxo-2,3-dihydro-1H-inden-2-ylcarbamate], the melting point was in the range of 153 to 155 °C. The CC50 in “in vitro” (CC50) is 53.7 µg/mL (≈ 146 µM).
